What follows are compounds tested on H358 (KRAS G12C mutant) cells (assay: Tumor cell proliferation inhibition experiment (Cell Titer-Glo luminescent cell viability assay)). Settings: Homo sapiens, NCI-H358, 72 h, read-out: NCI-H538 IC50(nm).
Method: H358 (KRAS G12C mutant) cells were digested, centrifuged, and resuspended. Cell density was determined using a Scepter automated cell counter. The cells were diluted to a solution containing 44,000 cells per milliliter. The adjusted cell solution was added to 90 µL per well in a 96-well culture plate. The 96-well plate was placed in a 37°C, 5% CO2 incubator. After culturing the cells for 24 hours, different concentrations of the test compound were added. The cells were then cultured with the compound for 72 hours in the presence of 10% fetal bovine serum. The ATP content was measured using the Cell Titer-Glo luminescent cell viability assay kit (see manufacturer's instructions for details) to assess cell growth inhibition. In short, 30 µL of Cell Titer-Glo reagent was added to each well, and the plate was shaken for 10 minutes to induce cell lysis. The fluorescence signal was detected and recorded using a Fluoroskan Ascent FL (Thermo). The maximum signal value was obtained from cells treated with dimethyl sulfoxide for 72 hours. Minimum signal value was obtained from a single culture medium (zero cell count). Inhibition rate % = (maximum signal value - minimum signal value) / (maximum signal value - minimum signal value × 100%). Data was processed using GraphPadprism 5 software. IC50 values were calculated by fitting an S-shaped dose-response curve.

SMILES	IC50 [nM]
C=CC(=O)N1CCN(c2nc(OC[C@@]34CCCN3C[C@H](F)C4)nc3c2CS(=O)(=O)C(c2c(F)c(N)cc(C)c2C(F)(F)F)C3)[C@@H](C)C1 (stereo partly drawn) [Compound 1, 1-((3S)-4-(7-(3-amino-2-fluoro-5-methyl-6-(trifluoromethyl)phenyl)-2-(((2R,7AS)-2-fluorotetrahydro-1H-pyrrolazin-7a(5H)-yl)methoxy)-6,6-dioxo-7,8-dihydro-5H-thiaran[4,3-d]pyrimidin-4-yl)-3-methylpyrazin-1-yl)prop-2-en-1-one]	< 10
C=C(F)C(=O)N1CCN(c2nc(OC[C@@]34CCCN3C[C@H](F)C4)nc3c2CS(=O)(=O)C(c2c(F)c(N)cc(C)c2C(F)(F)F)C3)[C@@H](C)C1 (stereo partly drawn) [Compound 2, 1-((3S)-4-(7-(3-amino-2-fluoro-5-methyl-6-(trifluoromethyl)phenyl)-2-(((2R,7AS)-2-fluorotetrahydro-1H-pyrrolazin-7a(5H)-yl)methoxy)-6,6-dioxo-7,8-dihydro-5H-thiaran[4,3-d]pyrimidin-4-yl)-3-methylpyrazin-1-yl)-2-fluoroprop-2-en-1-one]	< 10
C=CC(=O)N1CCN(c2nc(OC[C@@]34CCCN3C[C@H](F)C4)nc3c2CS(=O)(=O)C(c2c(F)c(N)cc(C)c2C(F)(F)F)C3)C[C@@H]1CC#N (stereo partly drawn) [Compound 3, 2-((2S)-1-Acryloyl-4-(7-(3-amino-2-fluoro-5-methyl-6-(trifluoromethyl)phenyl)-2-(((2R,7AS)-2-fluorotetrahydro-1H-pyrrolazin-7a(5H)-yl)methoxy)-6,6-dioxo-7,8-dihydro-5H-thiaran[4,3-d]pyrimidin-4-yl)pyrazin-2-yl)acetonitrile]	< 10
C=C(F)C(=O)N1CCN(c2nc(OC[C@@]34CCCN3C[C@H](F)C4)nc3c2CS(=O)(=O)C(c2c(F)c(N)cc(C)c2C(F)(F)F)C3)C[C@@H]1CC#N (stereo partly drawn) [Compound 4, 2-((2S)-4-(7-(3-amino-2-fluoro-5-methyl-6-(trifluoromethyl)phenyl)-2-(((2R,7AS)-2-fluorotetrahydro-1H-pyrrolazin-7a(5H)-yl)methoxy)-6,6-dioxo-7,8-dihydro-5H-thiaran[4,3-d]pyrimidin-4-yl)-1-(2-fluoroacryloyl)pyrazin-2-yl)acetonitrile]	< 10
C=CC(=O)N1CCN(c2nc(OC[C@@]34CCCN3C[C@H](F)C4)nc3c2CS(=O)(=O)C(c2nc(N)cc(C)c2C(F)(F)F)C3)[C@@H](C)C1 (stereo partly drawn) [Compound 5, 1-((3S)-4-(7-(6-amino-4-methyl-3-(trifluoromethyl)pyridin-2-yl)-2-(((2R,7AS)-2-fluorotetrahydro-1H-pyrrolazin-7a(5H)-yl)methoxy)-6,6-dioxo-7,8-dihydro-5H-thiaran[4,3-d]pyrimidin-4-yl)-3-methylpyrazin-1-yl)prop-2-en-1-one]	< 10
C=C(F)C(=O)N1CCN(c2nc(OC[C@@]34CCCN3C[C@H](F)C4)nc3c2CS(=O)(=O)C(c2nc(N)cc(C)c2C(F)(F)F)C3)[C@@H](C)C1 (stereo partly drawn) [Compound 6, 1-((3S)-4-(7-(6-amino-4-methyl-3-(trifluoromethyl)pyridin-2-yl)-2-(((2R,7AS)-2-fluorotetrahydro-1H-pyrrolazin-7a(5H)-yl)methoxy)-6,6-dioxo-7,8-dihydro-5H-thiaran[4,3-d]pyrimidin-4-yl)-3-methylpyrazin-1-yl)-2-fluoroprop-2-en-1-one]	< 10

More lines, now with the values ahead:

IC50 [nM]	SMILES
< 10	C=CC(=O)N1CCN(c2nc(OC[C@@]34CCCN3C[C@H](F)C4)nc3c2CS(=O)(=O)[C@H](c2c(F)c(N)cc(C)c2C(F)(F)F)C3)[C@@H](C)C1 [Compound 1A, 1-((3S)-4-((7S)-7-(3-amino-2-fluoro-5-methyl-6-(trifluoromethyl)phenyl)-2-(((2R,7A S)-2-fluorotetrahydro-1H-pyrrolazin-7a(5H)-yl)methoxy)-6,6-dioxo-7,8-dihydro-5H-thiaran[4,3-d]pyrimidin-4-yl)-3-methylpyrazin-1-yl)prop-2-en-1-one]
< 10	C=CC(=O)N1CCN(c2nc(OC[C@@]34CCCN3C[C@H](F)C4)nc3c2CS(=O)(=O)[C@@H](c2c(F)c(N)cc(C)c2C(F)(F)F)C3)[C@@H](C)C1 [Compound 1B, 1-((3S)-4-((7R)-7-(3-amino-2-fluoro-5-methyl-6-(trifluoromethyl)phenyl)-2-(((2R,7A S)-2-fluorotetrahydro-1H-pyrrolazin-7a(5H)-yl)methoxy)-6,6-dioxo-7,8-dihydro-5H-thiaran[4,3-d]pyrimidin-4-yl)-3-methylpyrazin-1-yl)prop-2-en-1-one]
< 10	C=C(F)C(=O)N1CCN(c2nc(OC[C@@]34CCCN3C[C@H](F)C4)nc3c2CS(=O)(=O)[C@H](c2c(F)c(N)cc(C)c2C(F)(F)F)C3)[C@@H](C)C1 [Compound 2A, 1-((3S)-4-((7S)-7-(3-amino-2-fluoro-5-methyl-6-(trifluoromethyl)phenyl)-2-(((2R,7A S)-2-fluorotetrahydro-1H-pyrrolazin-7a(5H)-yl)methoxy)-6,6-dioxo-7,8-dihydro-5H-thiaran[4,3-d]pyrimidin-4-yl)-3-methylpyrazin-1-yl)-2-fluoroprop-2-en-1-one]
< 10	C=C(F)C(=O)N1CCN(c2nc(OC[C@@]34CCCN3C[C@H](F)C4)nc3c2CS(=O)(=O)[C@@H](c2c(F)c(N)cc(C)c2C(F)(F)F)C3)[C@@H](C)C1 [Compound 2B, 1-((3S)-4-((7R)-7-(3-amino-2-fluoro-5-methyl-6-(trifluoromethyl)phenyl)-2-(((2R,7A S)-2-fluorotetrahydro-1H-pyrrolazin-7a(5H)-yl)methoxy)-6,6-dioxo-7,8-dihydro-5H-thiaran[4,3-d]pyrimidin-4-yl)-3-methylpyrazin-1-yl)-2-fluoroprop-2-en-1-one]
< 10	C=CC(=O)N1CCN(c2nc(OC[C@@]34CCCN3C[C@H](F)C4)nc3c2CS(=O)(=O)[C@H](c2c(F)c(N)cc(C)c2C(F)(F)F)C3)C[C@@H]1CC#N [Compound 3A, 2-((2S)-1-Acryloyl-4-((7S)-7-(3-amino-2-fluoro-5-methyl-6-(trifluoromethyl)phenyl)-2-(((2R,7AS)-2-fluorotetrahydro-1H-pyrrolazin-7a(5H)-yl)methoxy)-6,6-dioxo-7,8-di hydro-5H-thiaran[4,3-d]pyrimidin-4-yl)pyrazin-2-yl)acetonitrile]
< 10	C=CC(=O)N1CCN(c2nc(OC[C@@]34CCCN3C[C@H](F)C4)nc3c2CS(=O)(=O)[C@@H](c2c(F)c(N)cc(C)c2C(F)(F)F)C3)C[C@@H]1CC#N [Compound 3B, 2-((2S)-1-Acryloyl-4-((7R)-7-(3-amino-2-fluoro-5-methyl-6-(trifluoromethyl)phenyl) -2-(((2R,7AS)-2-fluorotetrahydro-1H-pyrrolazin-7a(5H)-yl)methoxy)-6,6-dioxo-7,8-dihydro-5H-thiaran[4,3-d]pyrimidin-4-yl)pyrazin-2-yl)acetonitrile]
< 10	C=C(F)C(=O)N1CCN(c2nc(OC[C@@]34CCCN3C[C@H](F)C4)nc3c2CS(=O)(=O)[C@H](c2c(F)c(N)cc(C)c2C(F)(F)F)C3)C[C@@H]1CC#N [Compound 4A, 2-((2S)-4-((7S)-7-(3-amino-2-fluoro-5-methyl-6-(trifluoromethyl)phenyl)-2-(((2R, 7A S)-2-fluorotetrahydro-1H-pyrrolazin-7a(5H)-yl)methoxy)-6,6-dioxo-7,8-dihydro-5H-thiaran[4,3-d]pyrimidin-4-yl)-1-(2-fluoroacryloyl)pyrazin-2-yl)acetonitrile]
< 10	C=C(F)C(=O)N1CCN(c2nc(OC[C@@]34CCCN3C[C@H](F)C4)nc3c2CS(=O)(=O)[C@@H](c2c(F)c(N)cc(C)c2C(F)(F)F)C3)C[C@@H]1CC#N [Compound 4B, 2-((2S)-4-((7R)-7-(3-amino-2-fluoro-5-methyl-6-(trifluoromethyl)phenyl)-2-(((2R, 7A S)-2-fluorotetrahydro-1H-pyrrolazin-7a(5H)-yl)methoxy)-6,6-dioxo-7,8-dihydro-5H-thiaran[4,3-d]pyrimidin-4-yl)-1-(2-fluoroacryloyl)pyrazin-2-yl)acetonitrile]
< 10	C=CC(=O)N1CCN(c2nc(OC[C@@]34CCCN3C[C@H](F)C4)nc3c2CS(=O)(=O)[C@H](c2nc(N)cc(C)c2C(F)(F)F)C3)[C@@H](C)C1 [Compound 5A, 1-((3S)-4-((7S)-7-(6-amino-4-methyl-3-(trifluoromethyl)pyridin-2-yl)-2-(((2R,7AS)-2-fluorotetrahydro-1H-pyrrolazin-7a(5H)-yl)methoxy)-6,6-dioxo-7,8-dihydro-5H-thiaran[4,3-d]pyrimidin-4-yl)-3-methylpyrazin-1-yl)prop-2-en-1-one]
< 10	C=CC(=O)N1CCN(c2nc(OC[C@@]34CCCN3C[C@H](F)C4)nc3c2CS(=O)(=O)[C@@H](c2nc(N)cc(C)c2C(F)(F)F)C3)[C@@H](C)C1 [Compound 5B, 1-((3S)-4-((7R)-7-(6-amino-4-methyl-3-(trifluoromethyl)pyridin-2-yl)-2-(((2R,7AS)-2-fluorotetrahydro-1H-pyrrolazin-7a(5H)-yl)methoxy)-6,6-dioxo-7,8-dihydro-5H-thiaran[4,3-d]pyrimidin-4-yl)-3-methylpyrazin-1-yl)prop-2-en-1-one]
< 10	C=C(F)C(=O)N1CCN(c2nc(OC[C@@]34CCCN3C[C@H](F)C4)nc3c2CS(=O)(=O)[C@H](c2nc(N)cc(C)c2C(F)(F)F)C3)[C@@H](C)C1 [Compound 6A, 1-((3S)-4-((7S)-7-(6-amino-4-methyl-3-(trifluoromethyl)pyridin-2-yl)-2-(((2R,7AS)-2-fluorotetrahydro-1H-pyrrolazin-7a(5H)-yl)methoxy)-6,6-dioxo-7,8-dihydro-5H-thiaran[4,3-d]pyrimidin-4-yl)-3-methylpyrazin-1-yl)-2-fluoroprop-2-en-1-one]
< 10	C=C(F)C(=O)N1CCN(c2nc(OC[C@@]34CCCN3C[C@H](F)C4)nc3c2CS(=O)(=O)[C@@H](c2nc(N)cc(C)c2C(F)(F)F)C3)[C@@H](C)C1 [Compound 6B, 1-((3S)-4-((7R)-7-(6-amino-4-methyl-3-(trifluoromethyl)pyridin-2-yl)-2-(((2R,7AS)-2-fluorotetrahydro-1H-pyrrolazin-7a(5H)-yl)methoxy)-6,6-dioxo-7,8-dihydro-5H-thiaran[4,3-d]pyrimidin-4-yl)-3-methylpyrazin-1-yl)-2-fluoroprop-2-en-1-one]
